# Measurements reported in PMC8874540, “Pyrazole and Triazole Derivatives as Mycobacterium tuberculosis UDP-Galactopyranose Inhibitors” (Pharmaceuticals, 2022).
# Counter-ions that a name gives are not always drawn.
# Biological target: T1, UDP-galactopyranose mutase (MtbUGM) (Mycobacterium tuberculosis, UniProt P9WIQ1)
# T1 construct: gene glf; His6-tagged MtbUGM from pET-29b(+)
# Experiment: HPLC kinetic assay of UDP-Galf to UDP-Galp, global fit
# Type: biochemical
# T1 sequence (P9WIQ1 whole entry): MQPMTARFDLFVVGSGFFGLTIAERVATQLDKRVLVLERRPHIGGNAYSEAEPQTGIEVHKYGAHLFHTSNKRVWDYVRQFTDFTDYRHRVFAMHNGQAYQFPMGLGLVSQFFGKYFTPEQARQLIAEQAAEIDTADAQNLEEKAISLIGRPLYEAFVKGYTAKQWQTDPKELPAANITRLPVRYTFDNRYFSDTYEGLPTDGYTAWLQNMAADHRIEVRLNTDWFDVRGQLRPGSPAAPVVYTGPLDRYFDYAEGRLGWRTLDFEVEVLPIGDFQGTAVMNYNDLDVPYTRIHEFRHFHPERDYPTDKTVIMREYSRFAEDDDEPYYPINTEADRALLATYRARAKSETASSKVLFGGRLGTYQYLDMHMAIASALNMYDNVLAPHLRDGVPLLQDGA
row,SMILES,Ki
1,"Cc1cc(OC(=O)c2ccc(S(N)(=O)=O)cc2)n(-c2ccc(Cl)cc2)n1 [DA10, 4-Sulfamoyl-[3-methyl-1-p-chlorophenyl-1H-pyrazol-5-yl] benzoic acid ester]",51 ± 4 µM

# Biological target: T1, UDP-galactopyranose mutase (MtbUGM)
# Experiment: HPLC assay, % inhibition at […], […] UDP-Galf
# Type: biochemical
row,SMILES,"HPLC assay, % inhibition at 60 μM, 15 μM UDP-Galf"
1,"Cc1nn(-c2ccccc2)c(O)c1C(=O)c1ccc(Cl)cc1 [DA1, 4-p-chlorobenzoyl-1-phenyl-3-methyl-5-pyrazol]",DA1 and DA2 showed comparable inhibition to that of MS208
2,"Cc1nn(-c2ccc(Cl)cc2)c(O)c1C(=O)c1ccccc1 [DA2, 4-benzoyl-1-p-chlorophenyl-3-methyl-5-pyrazol]",DA1 and DA2 showed comparable inhibition to that of MS208
3,"Cc1nn(-c2ccc(Cl)cc2)c(O)c1S(=O)(=O)c1ccc(Cl)cc1 [DA5, 4-p-chlorobenzosulfonyl-1-p-chlorophenyl-3-methyl-5-pyrazol hydrochloride]","The sulfonyl derivative, DA5, showed comparable % inhibition to that of the carbonyl derivative MS208."
4,COC(=O)c1ccc(C(=O)Oc2cc(C)nn2-c2ccc(Cl)cc2)cc1 [DA8],"two of these O-acyl analogues, DA8 and DA10 still showed comparable % inhibition to MS208"
5,O=C(CCc1cn(-c2ccc(Cl)cc2)nn1)Oc1ccc(Cl)cc1 [DA11],"The triazolo analogues, DA11-DA13, showed comparable % inhibition to that of MS208."
6,"OC(c1ccc(Cl)cc1)c1cn(-c2ccc(Cl)cc2)nn1 (stereo not drawn) [DA12, [1-(4-chlorophenyl)-1H-1,2,3-triazol-4-yl]-4-chlorophenylmethanol]","The triazolo analogues, DA11-DA13, showed comparable % inhibition to that of MS208."
7,"O=C(c1ccc(Cl)cc1)c1cn(-c2ccc(Cl)cc2)nn1 [DA13, 4-p-chlorobenzoyl-1-p-chlorophenyl-1H-1,2,3-triazole]","The triazolo analogues, DA11-DA13, showed comparable % inhibition to that of MS208."
8,"Cc1nn(-c2ccc(Cl)cc2)c(O)c1C(=O)c1ccc(Cl)cc1 [MS208, 4-p-chlorobenzoyl-1-p-chlorophenyl-3-methyl-5-pyrazol]",DA1 and DA2 showed comparable inhibition to that of MS208
